Experiments:
[1] = tested on: AR; assay: Subcellular localization of androgen receptor, Western blot of nuclear and cytoplasmic fractions; format: cell-based, human; details: LNCaP and VCaP cells, 10 μM KBU2046
Source text: Several considerations warranted a deeper examination of the effect of KBU2046 on AR function. […] Additionally, AR is a client protein of HSP90, AR function requires HSP90-mediated chaperone action, and direct inhibitors of HSP90 decrease client protein expression and inhibit AR function (24-26 Fang et al., J Biol Chem 271, 28697-28702 (1996); Saporita et al., Prostate 67, 509-520 (2007); and Ni et al., Mol Cell Biol 30, 1243-1253 (2010)). […] It is a selective HSP90 activity modulator (SHAM), and selectively modulates client proteins that regulate cell motility. However, the effect of KBU2046 on AR expression and function had not been examined. […]
LNCaP or VCaP cells cultured in hormone free media were treated with R1881 (R), KBU2046 (46) and/or enzalutamide (E). […] PSA expression was measured by qRT/PCR, normalized to GAPDH and expressed as a percent of control cells (N=3 replicates); * denotes P<0.05 for groups separated by bar. […] Data are the number of viable cells, expressed as % of control (N=3 replicates); * P<0.05 compared to control. […] Data are tumor size, expressed as luminescence intensity. All data are expressed as mean±SEM.
LNCaP and VCaP cells were pre-incubated in the charcoal-striped medium containing 10 μM KBU2046 or vehicle control for 72 hours. […] Protein was quantified by BCA assay (Thermo-Fisher Scientific, Waltham, Mass.), per manufacturer's instructions. […]

[2] = tested on: RAW 267.4 cells; assay: ApoTox-Glo Triplex assay in RANKL treated osteoclast cells; format: cell-based, mouse; details: 72 hours after treatment
Protocol: FIG. 5 represents the improved efficacy seen with KBU2046 combined with ZA. In FIG. 5A bone degradation was tested using osteo assays performed as in FIG. 4D. Cells were treated with KBU2046 (46), ZA at 2, 10 or 20 μM, with the indicated combinations, or vehicle (control; CO). Data are the mean±SEM (N=3 replicates); * denotes P<0.05 compared to control, or between conditions denoted by bars. FIG. 5B provides representative photomicrographs of osteo assay wells. Black color denotes presence of bone matrix; RL: RANKL. (FIGS. 5C-5E) Cell viability, cytotoxicity and apoptosis. RAW 267.4 cells were treated with RANKL, at day 4 they were treated with KBU2046, ZA at 1 or 10 μM (ZA1 or ZA10), the indicated combination, or vehicle (CO) and Triplex assay performed 24, 48 or 72 hours later, per Methods. Data are the mean±SEM (N=4 replicates); ¥, #, * denotes P<0.05 compared to control. (FIGS. 5F-5H) In vivo efficacy. Four cohorts of mice, N=15/cohort, were given intracardiac injections of PC3-luc cells, yielding the following successful injections: N=12 control, N=12 ZA, N=13 KBU2046 and N=13 ZA+KBU2046. Treatment was oral 150 mg KBU2046/kg daily (starting 3 days before IC injection), intraperitoneal ZA 100 μg/kg weekly (starting 1 week before IC injection), with oral and intraperitoneal vehicle controls given as indicated. […] (FIGS. 5C and 5D) Quantification of bone lesions. The macroscopic lesions in the jaw were quantified by direct measurement from CT images, and expressed as the mean±SEM percent of control. Bone density of femurs was measured from CT images, and expressed as the mean±SEM percent of control. * denotes P<0.05 compared to control, and for groups indicated by bars.
We next examined the effect of ZA and KBU2046 on osteoclast cell viability, apoptosis and cytotoxicity. RAW 267.4 cells were treated with RANKL for the duration of the experiment, at day 4 they were then treated with ZA, KBU2046, the combination, or vehicle (for controls), and effect on cell viability, apoptosis and cytotoxicity measured by Triplex assay at 24, 48 and 72 hours after treatment (FIGS. 5C-5E). […]

Q: With `O=C1c2ccccc2OCC1c1ccc(F)cc1` (stereo not shown) [KBU2046, 3-(4-fluorophenyl)chroman-4-one] as the compound, how does the “AR expression or nuclear localization in response to R1881, and its inhibition by enzalutamide” value [1] read?
A: did not affect

Q: And the cell viability ([2]; compared to control)?
A: significant increases

Q: What about the cytotoxicity ([2]; compared to control) of the same compound?
A: decreases

Q: And the apoptosis ([2]; compared to controls)?
A: significant increase

— patent publication US20220133894A1, “BISPHOSPHONATE-LINKED COMPOUNDS” (OREGON HEALTH & SCIENCE UNIVERSITY, priority 2019, published 2022)
